# Molecular target: Protein-arginine deiminase type-2 (Homo sapiens, UniProt Q9Y2J8)
# Experiment: Inhibition of N-terminal 6His/FLAG-tagged recombinant human PAD2 (1 to 665 residues) expressed in baculovirus infected sf9 cells using N-a-benzoyl-L-arginine ethyl ester as substrate preincubated for 30 mins followed by substrate addition after 90 mins by DTT-based fluorescence assay
# Sequence of Protein-arginine deiminase type-2 (Q9Y2J8 whole entry, the tested form may be a part): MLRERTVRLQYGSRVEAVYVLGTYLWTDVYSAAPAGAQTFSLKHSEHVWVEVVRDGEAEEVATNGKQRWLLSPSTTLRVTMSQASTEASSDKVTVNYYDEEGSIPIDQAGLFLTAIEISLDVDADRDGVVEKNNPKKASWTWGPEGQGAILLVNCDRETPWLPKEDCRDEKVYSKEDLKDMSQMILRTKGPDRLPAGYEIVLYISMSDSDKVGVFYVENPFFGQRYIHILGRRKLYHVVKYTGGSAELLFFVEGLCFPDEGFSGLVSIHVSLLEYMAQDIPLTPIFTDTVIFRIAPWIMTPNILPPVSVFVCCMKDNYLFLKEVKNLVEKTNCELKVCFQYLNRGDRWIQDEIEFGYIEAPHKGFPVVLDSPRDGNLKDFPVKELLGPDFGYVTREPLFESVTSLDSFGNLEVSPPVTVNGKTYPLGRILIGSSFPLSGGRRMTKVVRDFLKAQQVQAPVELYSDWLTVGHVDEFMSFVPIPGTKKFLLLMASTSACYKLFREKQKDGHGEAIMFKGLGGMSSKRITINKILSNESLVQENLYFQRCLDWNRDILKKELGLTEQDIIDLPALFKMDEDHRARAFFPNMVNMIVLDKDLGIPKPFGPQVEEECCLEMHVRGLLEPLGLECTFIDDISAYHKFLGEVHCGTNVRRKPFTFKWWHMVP
row,IC50 [µM],Structure (SMILES)
1,10 to 79.4,COc1cc(C(=O)N2CC[C@@H](O)[C@@H](N)C2)cc2nc(-c3cc4ccccc4n3CC(F)(F)F)n(C)c12
2,10 to 79.4,Cn1c(-c2cc3ccccc3n2CC2CC2)nc2cc(C(=O)N3CCC[C@@H](N)C3)ccc21
3,10 to 79.4,COc1cc(C(=O)N2CCC[C@@H](N)C2)cc2nc(-c3cc4ccccc4n3CC(F)(F)F)n(C)c12
4,10 to 79.4,COc1cc(C(=O)N2CCC[C@@H](N)C2)cc2nc(-c3cc4ccccc4n3CC3CC3)n(C)c12

# Reference: ChEMBL document CHEMBL3868639, “Great Therapeutic Potential of Peptidylarginine Deiminase 4 (PAD4) Inhibitors: Treatment of Rheumatoid Arthritis, Epigenetic Tools, Regulation of Pluripotency in Stem Cells, and More” (ACS Med Chem Lett, 2017)
